Literature values, collected in patent publication US20110190503A1, “Thiazolopyridin-2-yloxy-phenyl and thiazolopyrazin-2-yloxy-phenyl amines as modulators of leukotriene A4 hydrolase” (Janssen Pharmaceutical NV, priority 2008, published 2011).

Columns and labels:
pruritus = details: Sjogren-Larsson syndrome patients; cited from earlier work
[1] = tested on: bronchial hyperresponsiveness; details: human asthma; cited from earlier work
[2] = severe asthmatics; cited from earlier work
atopic dermatitis = details: small, open-label clinical trials; cited from earlier work
[3] = tested on: airway hyperresponsiveness; details: primate model; cited from earlier work

Structure (SMILES)	pruritus (pruritus)	bronchial hyperresponsiveness [1]	quality of life [2]	effect in atopic dermatitis (atopic dermatitis)	airway hyperresponsiveness induced by multiple antigen challenges [3]
CC(c1cc2ccccc2s1)N(O)C(N)=O (centres unmarked) [zileuton]	relieving the pruritus	reduction of bronchial hyperresponsiveness	significantly improve quality of life	beneficial effects	
O=C(O)C1(c2ccc3c(c2)OC[C@H](Cc2ccc(-c4ccccc4)cc2)[C@H]3O)CCCC1 [CP-105,696]					reduced airway hyperresponsiveness
